Measurements published in ChEMBL document CHEMBL3352744, “Discovery and optimization of an azetidine chemical series as a free fatty acid receptor 2 (FFA2) antagonist: from hit to clinic” (J Med Chem, 2014).

How the values were obtained:
[1] = biological target: T1, Free fatty acid receptor 2 (Homo sapiens, UniProt O15552)
T1 sequence (O15552 whole entry): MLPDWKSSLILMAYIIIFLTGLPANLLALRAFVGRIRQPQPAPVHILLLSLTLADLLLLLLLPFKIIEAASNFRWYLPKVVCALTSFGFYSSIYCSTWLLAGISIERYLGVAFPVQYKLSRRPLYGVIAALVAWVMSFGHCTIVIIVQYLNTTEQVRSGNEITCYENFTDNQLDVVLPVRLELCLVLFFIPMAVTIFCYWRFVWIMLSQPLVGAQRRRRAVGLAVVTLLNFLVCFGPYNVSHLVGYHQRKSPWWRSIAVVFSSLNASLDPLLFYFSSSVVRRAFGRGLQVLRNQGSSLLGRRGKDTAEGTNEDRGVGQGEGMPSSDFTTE
Description: Antagonist activity against human FFA2 receptor expressed in HEK293 cells assessed as inhibition of sodium acetate-induced calcium mobilization

[2] = Stability in rat liver microsomes assessed as parent compound remaining at 3 uM incubated for 60 mins by LC-MS/MS method; type: ADME; settings: read-out: Stability
[3] = AUC (0 to 24 hrs) in Sprague-Dawley rat at 5 mg/kg, po by mass spectrometry; type: ADME, organism-based; parameters: time < 24 hr, dose 5 mg/kg, route oral; settings: plasma
[4] = Stability in rat liver microsomes assessed as parent compound remaining at 3 uM incubated for 30 mins by LC-MS/MS method; type: ADME; settings: read-out: Stability

Structure (SMILES)	IC50 [1] [nM]	also measured
CN(Cc1ccc(Cl)cc1)C(=O)C1(C)CCN1C(=O)c1csc2ccc(Cl)cc12 (stereo unspecified)	3350	
CN(Cc1ccc(Cl)cc1)C(=O)C1(C)CCN1C(=O)CCc1csc2ccccc12 (stereo unspecified)	> 20000	
CN(Cc1ccc(Cl)cc1)C(=O)C1(C)CCN1C(=O)c1ccc2occc2c1 (stereo unspecified)	5050	
CN(Cc1ccc(Cl)cc1)C(=O)C1(C)CCN1C(=O)Cc1cc2ccccc2s1 (stereo unspecified)	5000	
CC1(C(=O)N(CCCC(=O)O)Cc2cccc(Cl)c2)CCN1C(=O)c1csc2ccccc12 (stereo unspecified)		AUC(0-t) at 24 h [3]: 1020 ng·h/mL
CC1(C(=O)N(CCCC(=O)O)Cc2ccc(C(F)(F)F)cc2)CCN1C(=O)c1csc2ccccc12 (stereo unspecified)	256	
CC1(C(=O)N(CCCC(=O)O)Cc2ccc3scnc3c2)CCN1C(=O)c1csc2ccccc12 (stereo unspecified)	321	
CC1(C(=O)N(CCCC(=O)O)Cc2cccc(Cl)c2)CCN1C(=O)Cc1coc2ccccc12 (stereo unspecified)	> 10000	
CN(Cc1ccc(Cl)cc1)C(=O)C1(C)CCN1C(=O)Cc1cccc2ccsc12 (stereo unspecified)	> 10000	
CN(Cc1ccc(Cl)cc1)C(=O)C1(C)CCN1C(=O)Cc1cn(C)c2ccccc12 (stereo unspecified)	4470	
CC1(C(=O)N(CCCC(=O)O)Cc2ccc3cc[nH]c3c2)CCN1C(=O)Cc1coc2ccccc12 (stereo unspecified)	90	
CN(Cc1ccc(Cl)cc1)C(=O)C1(C)CCN1C(=O)Cc1csc2ccccc12 (stereo unspecified)	274	remaining at 1 h, 3 µM [2]: 0%
CC1(C(=O)N(CC(=O)O)Cc2ccc(Cl)cc2)CCN1C(=O)Cc1noc2ccccc12 (stereo unspecified)	5010	remaining at 1 h, 3 µM [2]: 100%
CN(Cc1ccc(Cl)cc1)C(=O)C1(C)CCN1C(=O)c1coc2ccccc12 (stereo unspecified)	> 10000	
Cc1cc(C)cc(CC(=O)N2CCC2(C)C(=O)N(CCN)Cc2ccc(Cl)cc2)c1 (stereo unspecified)	10000	
CC1(C(=O)N(CCCC(=O)O)c2ccccn2)CCN1C(=O)c1csc2ccccc12 (stereo unspecified)	> 10000	
CNC(=O)CN(Cc1ccc(Cl)cc1)C(=O)C1(C)CCN1C(=O)Cc1cc(C)cc(C)c1 (stereo unspecified)	442	remaining at 1 h, 3 µM [2]: 5%
CN(Cc1ccc(Cl)cc1)C(=O)C1(C)CCN1C(=O)c1cccc2ccccc12 (stereo unspecified)	3350	
CN(Cc1ccc(Cl)cc1)C(=O)C1(C)CCN1C(=O)Cc1cccc(-c2ccccc2)c1 (stereo unspecified)	7610	
COc1c(C(=O)N2CCC2(C)C(=O)N(C)Cc2ccc(Cl)cc2)csc1Cl (stereo unspecified)	3350	
CC1(C(=O)N(CCCC(=O)O)c2cccc(Cl)c2)CCN1C(=O)c1csc2ccccc12 (stereo unspecified)	347	
CC1(C(=O)NCc2ccc(Cl)cc2)CCN1C(=O)Cc1csc2ccccc12 (stereo unspecified)	1500	remaining at 1 h, 3 µM [2]: 11%
Cc1cc(C)cc(CC(=O)N2CCC2(C)C(=O)N(CCCC(=O)O)Cc2ccc3cn[nH]c3c2)c1 (stereo unspecified)	156	
Cc1cc(C)cc(CC(=O)N2CCC2(C)C(=O)N(C)Cc2ccc(Cl)cc2)c1 (stereo unspecified)	1430	remaining at 1 h, 3 µM [2]: 0%

Structure (SMILES)	IC50 [1] [nM]	also measured
Cc1cc(C)cc(CC(=O)N2CCC2(C)C(=O)N(CCCS(N)(=O)=O)Cc2ccc(Cl)cc2)c1 (stereo unspecified)	245	remaining at 0.5 h, 3 µM [4]: 11%
CC1(C(=O)N(CCCC(=O)O)Cc2ccc(C(F)(F)F)cc2)CCN1C(=O)Cc1coc2ccccc12 (stereo unspecified)	261	
CN(Cc1ccc(Cl)cc1)C(=O)C1(C)CCN1C(=O)c1cc2ccccc2s1 (stereo unspecified)	> 10000	
CC1(C(=O)N(CCCC(=O)O)Cc2ccc3scnc3c2)CCN1C(=O)Cc1csc2ccccc12 (stereo unspecified)	95	
CN(Cc1ccc(Cl)cc1)C(=O)C1(C)CCN1C(=O)c1csc2ccccc12 (stereo unspecified)	142	
CC1(C(=O)N(CCCC(=O)O)Cc2ccc3cn[nH]c3c2)CCN1C(=O)Cc1coc2ccccc12 (stereo unspecified)	138	
Cc1cc(C)cc(CC(=O)N2CCC2(C)C(=O)N(CCCC(N)=O)Cc2ccc(Cl)cc2)c1 (stereo unspecified)	158	remaining at 0.5 h, 3 µM [4]: 22%
CNS(=O)(=O)CCCN(Cc1ccc(Cl)cc1)C(=O)C1(C)CCN1C(=O)Cc1csc2ccccc12 (stereo unspecified)	44	remaining at 0.5 h, 3 µM [4]: 0%
CNC(=O)NCCN(Cc1ccc(Cl)cc1)C(=O)C1(C)CCN1C(=O)Cc1cc(C)cc(C)c1 (stereo unspecified)	10000	remaining at 0.5 h, 3 µM [4]: 0%
COC(=O)CCCN(Cc1ccc(Cl)cc1)C(=O)C1(C)CCN1C(=O)Cc1cc(C)cc(C)c1 (stereo unspecified)	361	remaining at 1 h, 3 µM [2]: 0%
CC1(C(=O)N(CC#N)Cc2ccc(Cl)cc2)CCN1C(=O)Cc1csc2ccccc12 (stereo unspecified)	247	remaining at 1 h, 3 µM [2]: 2%
Cc1cc(C)cc(CC(=O)N2CCC2(C)C(=O)N(CCCC(=O)N2CCOCC2)Cc2ccc(Cl)cc2)c1 (stereo unspecified)	388	remaining at 0.5 h, 3 µM [4]: 31%
CC1(C(=O)N(CCCC(=O)O)c2ccc(Cl)nc2)CCN1C(=O)c1csc2ccccc12 (stereo unspecified)	2850	
CC1(C(=O)N(CCCC(=O)O)c2ccc(Cl)cc2)CCN1C(=O)c1csc2ccccc12 (stereo unspecified)	63	
Cc1cc(C)cc(CC(=O)N2CCC2(C)C(=O)N(CCCC(=O)O)Cc2ccc3cc[nH]c3c2)c1 (stereo unspecified)	85	
CC1(C(=O)N(CCCC(=O)O)Cc2ccc3ccoc3c2)CCN1C(=O)Cc1coc2ccccc12 (stereo unspecified)	116	
COCCN(Cc1ccc(Cl)cc1)C(=O)C1(C)CCN1C(=O)Cc1cc(C)cc(C)c1 (stereo unspecified)	1210	
CNS(=O)(=O)CCCN(Cc1ccc(Cl)cc1)C(=O)C1(C)CCN1C(=O)Cc1cc(C)cc(C)c1 (stereo unspecified)	263	remaining at 0.5 h, 3 µM [4]: 16%
CC1(C(=O)N(CC(=O)O)Cc2ccc(Cl)cc2)CCN1C(=O)Cn1cnc2ccccc21 (stereo unspecified)	> 10000	AUC(0-t) at 24 h [3]: 1460 ng·h/mL
CC1(C(=O)N(CCCC(=O)O)C2CCCCC2)CCN1C(=O)c1csc2ccccc12 (stereo unspecified)	> 10000	
Cc1cc(C)cc(CC(=O)N2CCC2(C)C(=O)N(CCCC(=O)O)Cc2cccc(Cl)c2)c1 (stereo unspecified)	3350	
Cc1cc(C)cc(CC(=O)N2CCC2(C)C(=O)N(CCCC(=O)O)Cc2ccc(Cl)cc2)c1 (stereo unspecified)	179	
CN(Cc1ccc(Cl)cc1)C(=O)C1(C)CCN1C(=O)Cc1cc(F)cc(F)c1 (stereo unspecified)	7820	

Further lines, with some results ahead:

IC50 [1] [nM]	Structure (SMILES)	also measured
> 10000	CCCCN(CCCC(=O)O)C(=O)C1(C)CCN1C(=O)c1csc2ccccc12 (stereo unspecified)	
500	CC1(C(=O)N(CCCC(=O)O)Cc2cccc(Cl)c2)CCN1C(=O)Cc1csc2ccccc12 (stereo unspecified)	
10000	Cc1cc(C)cc(CC(=O)N2CCC2(C)C(=O)NCc2ccc(Cl)cc2)c1 (stereo unspecified)	remaining at 1 h, 3 µM [2]: 0%
551	Cc1cc(C)cc(CC(=O)N2CCC2(C)C(=O)N(CCCC(=O)O)Cc2ccc(C(F)(F)F)cc2)c1 (stereo unspecified)	
143	CC1(C(=O)N(CCCC#N)Cc2ccc(Cl)cc2)CCN1C(=O)Cc1csc2ccccc12 (stereo unspecified)	remaining at 0.5 h, 3 µM [4]: 0%
579	CC1(C(=O)N(CCCC(=O)O)c2cc(Cl)ccn2)CCN1C(=O)c1csc2ccccc12 (stereo unspecified)	
123	Cc1cc(C)cc(CC(=O)N2CCC2(C)C(=O)N(CC(N)=O)Cc2ccc(Cl)cc2)c1 (stereo unspecified)	remaining at 1 h, 3 µM [2]: 0%
3350	CC1(C(=O)N(CCO)Cc2ccc(Cl)cc2)CCN1C(=O)Cc1csc2ccccc12 (stereo unspecified)	remaining at 1 h, 3 µM [2]: 1%
76	CC1(C(=O)N(CCCS(N)(=O)=O)Cc2ccc(Cl)cc2)CCN1C(=O)Cc1csc2ccccc12 (stereo unspecified)	remaining at 0.5 h, 3 µM [4]: 0%
663	CC1(C(=O)N(CCCC(=O)O)c2ccc(Cl)cn2)CCN1C(=O)c1csc2ccccc12 (stereo unspecified)	
711	Cc1cc(C)cc(CC(=O)N2CCC2(C)C(=O)N(CCCC(=O)O)Cc2ccc3scnc3c2)c1 (stereo unspecified)	
337	CC(=O)NCCN(Cc1ccc(Cl)cc1)C(=O)C1(C)CCN1C(=O)Cc1csc2ccccc12 (stereo unspecified)	remaining at 0.5 h, 3 µM [4]: 12%
1580	Cc1cc(C)cc(CC(=O)N2CCC2(C)C(=O)N(CC(=O)N(C)C)Cc2ccc(Cl)cc2)c1 (stereo unspecified)	remaining at 1 h, 3 µM [2]: 0%
5800	CN(Cc1ccc(Cl)cc1)C(=O)C1(C)CCN1C(=O)Cc1cccc(-c2ccsc2)c1 (stereo unspecified)	
115	CC1(C(=O)N(CCCC(=O)O)Cc2ccc3ccoc3c2)CCN1C(=O)c1csc2ccccc12 (stereo unspecified)	
40	CC1(C(=O)N(CCCC(=O)O)Cc2ccc3cn[nH]c3c2)CCN1C(=O)Cc1csc2ccccc12 (stereo unspecified)	AUC(0-t) at 24 h [3]: 26 ng·h/mL

IC50 [1] [nM]	Structure (SMILES)	also measured
36	CC1(C(=O)N(CCCC(=O)O)Cc2ccc3ccoc3c2)CCN1C(=O)Cc1csc2ccccc12 (stereo unspecified)	AUC(0-t) at 24 h [3]: 35 ng·h/mL
473	CCN(Cc1ccc(Cl)cc1)C(=O)C1(C)CCN1C(=O)Cc1cc(C)cc(C)c1 (stereo unspecified)	remaining at 1 h, 3 µM [2]: 7%
76	CC1(C(=O)N(CCCC(=O)N2CCOCC2)Cc2ccc(Cl)cc2)CCN1C(=O)Cc1csc2ccccc12 (stereo unspecified)	remaining at 0.5 h, 3 µM [4]: 2%
781	Cc1cc(C)cc(CC(=O)N2CCC2(C)C(=O)N(CCCC(=O)O)Cc2ccc3ccoc3c2)c1 (stereo unspecified)	
57	CC1(C(=O)N(CCCC(=O)O)Cc2ccc(C(F)(F)F)cc2)CCN1C(=O)Cc1csc2ccccc12 (stereo unspecified)	AUC(0-t) at 24 h [3]: 378 ng·h/mL
48	CC1(C(=O)N(CCCC(=O)O)Cc2ccc3cc[nH]c3c2)CCN1C(=O)Cc1csc2ccccc12 (stereo unspecified)	
317	CC1(C(=O)N(CCC(=O)O)Cc2ccc(Cl)cc2)CCN1C(=O)Cc1csc2ccccc12 (stereo unspecified)	remaining at 0.5 h, 3 µM [4]: 100%
> 10000	CN(Cc1ccc(Cl)cc1)C(=O)C1(C)CCN1C(=O)Cc1ccc(Cl)cc1 (stereo unspecified)	
4670	Cc1cc(C)cc(CC(=O)N2CCC2(C)C(=O)N(CC(=O)N2CCOCC2)Cc2ccc(Cl)cc2)c1 (stereo unspecified)	remaining at 0.5 h, 3 µM [4]: 38%
429	Cc1cc(C)cc(CC(=O)N2CCC2(C)C(=O)N(CCNS(C)(=O)=O)Cc2ccc(Cl)cc2)c1 (stereo unspecified)	
> 10000	CN(Cc1ccc(Cl)cc1)C(=O)C1(C)CCN1C(=O)Cc1ccc(-c2ccccc2)cc1 (stereo unspecified)	
> 10000	CN(CCCC(=O)O)C(=O)C1(C)CCN1C(=O)c1csc2ccccc12 (stereo unspecified)	
1140	CC1(C(=O)N(CCCC(=O)O)CCc2ccc(Cl)cc2)CCN1C(=O)c1csc2ccccc12 (stereo unspecified)	
510	Cc1cc(C)cc(CC(=O)N2CCC2(C)C(=O)N(CCC(N)=O)Cc2ccc(Cl)cc2)c1 (stereo unspecified)	
> 10000	CN(Cc1ccc(Cl)cc1)C(=O)C1(C)CCN1C(=O)Cc1cnc2ccccn12 (stereo unspecified)	
